Experimental data taken from patent publication US20190183910A1, “ENHANCING DNA REPAIR AND PREVENTING AGING AND ITS CONSEQUENCES IN REPRODUCTIVE AND OTHER CELLS” (NEW YORK MEDICAL COLLEGE, priority 2016, published 2019).

Experiments:
Type in all cases: cell-based
[1] = test system: mouse sperm; assay: Apoptosis by FLICA (activated caspases) in mouse sperm; settings: as a result of S1P treatment
Description: (§1) Treatment was performed with genotoxic stress (1 mM H2O2), S1P (200 μM), and S1P with genotoxic stress and control in culture for one hour. Also, the use of an ATM inhibitor was utilized (10 μM) (KU-55593, Abcam) (Li et al., 2014). We assessed DNA damage, apoptosis, and chromatin integrity. We also studied the DNA DSB repair gene expression by qRT-PCR in sperm lysates.
Levels of activated caspases were detected in mouse sperm samples using fluorescein-labelled inhibitors of caspases (FLICA). This cell-permeable and non-cytotoxic caspase inhibitor binds covalently to active caspases. The fluorogenic substrate becomes fluorescent on cleavage by the caspases. The inhibitors were used with the appropriate controls according to the kit instructions provided by the manufacturer (ImmunoChemistry Technologies). A 150-fold stock solution of the inhibitor was prepared in dimethylsulphoxide (DMSO). It was further diluted in phosphate-buffered saline (PBS) to yield a 30-fold working solution. Sperm samples (300 μl) were incubated at 37° C. for 1 hr with 10 μl of the working solution and subsequently washed twice with PBS. After labeling with FLICA, 1% propidium iodide (PI) in PBS was used to assess dead cells. All samples were analyzed directly by flow cytometry to detect caspase activity (Bedner et al., 2000; Darzynkiewicz et al., 2011).

[2] = test system: human sperm; assay: Neutral comet assay on human sperm
[3] = test system: mouse sperm; assay: Reactive oxygen species in mouse sperm; settings: as a result of S1P treatment
Description: as §1

[4] = test system: mouse sperm; assay: Alkaline comet assay on mouse sperm; settings: for percent tail DNA, alkaline comet: mouse sperm, n=9, mean±SEM
Description: as §1
Slides were prepared 48 hours prior to experimentation by coating normal glass microscope slides with 500 μl normal melting point agar (0.5% w/v in PBS) solution and left to dry at room temperature for no less than 48 hours. Then, 10 μl of mouse sperm suspension was mixed with 90 μl of 0.5% LMPA. Then this 100 μl solution was added to the NMPA-coated slides. Coverslips were added and slides were placed on a metallic tray on ice and in the dark for 5 minutes. The cover slips were removed and a 90 μl layer of LMPA was added. Cover slips were subsequently replaced before the LMPA hardened. Slides were then kept in the dark on ice again for another 5 minutes. After ten minutes, the cover slips were removed and slides were placed in staining jars containing ice cold lysing solution (2.5 M NaCl, 200 mM NaOH, 100 mM EDTA, 10 mM Trizma Base, 1% Triton X-100 and 10% DMSO [pH 10]) for 1.5 hours at 4° C. in a dark place.
After this lysis step, the slides were washed three times for 5 minutes with TE buffer (pH 8.0), and then placed flatly in the electrophoresis tank face up for 30 minutes to achieve the unwinding of the DNA. The alkaline electrophoresis buffer in this tank included 300 mM NaOH and 1 mM EDTA [pH13]. This incubation period was used to achieve the alkaline unwinding of the DNA. Electrophoresis was then performed at 25 V, 300 mA for 30 minutes. After this, slides were washed twice in neutralization buffer (0.4 M Tris, pH 7.5) for 5 minutes each. Before analysis could occur, the sperm within the slides needed to be fixed by draining the slides well on paper towels and then subjecting them to two 10 minute washes in ethanol, and then air drying at room temperature for 5 minutes. Ethidium bromide (50 μl at 10 μg/ml in water) was then added on the slide, and sealed with a cover slip. Slides were kept moist, wrapped in aluminum foil to prevent light exposure, and stored at 4° C. until analysis (Williams et al., 2014).
Slides from both alkaline and neutral comets were imaged by fluorescence microscopy using a Nikon OPTIPHOT microscope. ImageJ was used for comet assay analysis, which calculated tail length, tail moment, and % of DNA in the tail. […] To analyze the slides, an oval around the sperm head was drawn and calculated and then an oval around the sperm tail was drawn and calculated. […] It was calculated as the Pythagorean distance between two points. […]

[5] = test system: RAD51; assay: qRT-PCR DNA DSB repair gene expression in mouse sperm lysates, RAD51
Description: as §1
Sperm pellets previously snap-frozen in PBS were thawed. RNA was extracted using the trizol method (Rio et al., 2010). The quality and quantity of the RNA were measured with NanoDrop 2000 from Thermo Scientific. RNA (2 μg) from each sample was taken for reverse transcription with dTVN and N9 primers and SuperScript III reverse transcriptase, all procured from Invitrogen. The resulting cDNA was used to perform real-time qPCR with SYBR Green on an Applied Biosystems 7900HT Real-Time PCR machine was used. To determine the relative expression of various DNA repair genes in mouse sperm, we used the ΔΔCt method, which makes use of the expression of housekeeping genes. GAPDH was used as housekeeping gene. Primers were procured from Integrated DNA technologies (IDT) (Table 3).

In the case of CCCCCCCCCCCCC/C=C/[C@@H](O)[C@@H](N)COP(=O)(O)O [S1P, sphingosine 1 phosphate], the “percentage of apoptosis by FLICA” value [1] is reported as “no significant difference”, the “DNA damage, neutral comet” value ([2]; S1P-treated human sperm with ATM inhibitor) is reported as “no significant difference” and the “DNA damage, neutral comet” value ([2]; S1P-treated human sperm without ATM inhibitor) is reported as “no significant difference”. The reactive oxygen species [3] was “no significant difference”, the “DNA damage, alkaline comet” value ([4]; S1P-treated mouse sperm with ATM inhibitor) was “no significant difference” and the “percent tail DNA, alkaline comet” value ([4]; S1P alone, without ATM inhibitor) was 16.79±0.89%. For the same compound, the “percent tail DNA, alkaline comet” value ([4]; S1P with H2O2, without ATM inhibitor) was 16.8±0.87%, the “RAD51 expression (qRT-PCR)” value ([5]; S1P treatment, no ATM inhibitor) was “no significant difference” and the “RAD51 expression (qRT-PCR)” value ([5]; S1P with genotoxic stress, with ATM inhibitor, n=8, mean±SEM) was 0.015±0.056.
